This is an account of results in patent US10562912B2 (C&C Research Laboratories, priority 2013, dated 2020).

Each structure is given as a SMILES string.

What all share (type): cell-based
One test deals with DU-145. Briefly: Cell growth inhibition assay, prostate cancer cell line DU-145. As to conditions: Homo sapiens, DU-145 prostate cancer cell line. In a few lines: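 Viability by CellTiter-Glo luminescence after 72–96 h of compound dosing at 37° C. under 5% CO2; DU-145 and HCT116 seeded at 3,000 cells/well, SW626 at 5,000 cells/well.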
Another test relates to LNCaP. Briefly: Cell growth inhibition assay, prostate cancer cell line LNCaP (medium with 10 ng/mL IL-6). As to conditions: Homo sapiens, medium supplemented with 10 ng/mL of IL-6, 10,000 cells/well.
The next test concerns HEL92.1.7. As to the kind of experiment: Cell growth inhibition assay, blood cancer cell line HEL92.1.7. As to conditions: Homo sapiens, HEL 92.1.7, HEL92.1.7 blood cancer cell line. Here is the method:
The inhibitory effects of the compounds of the present invention against the growth of cancer cells were evaluated as shown below. The cancer cell lines including stomach cancer cell line (AGS), breast cancer cell lines (MDA-MB-231, MDA-MB-468, and BT-549), prostate cancer cell lines (LNCaP and DU-145), colon cancer cell line (HCT116), ovarian cancer cell line (SW626), liver cancer cell line (Hep3B), kidney cancer cell line (ACHN), lung cancer cell line (NCI-H23) and blood cancer cell lines (HEL92.1.7 and U266) were cultured under the protocol provided by each supplier. A medium supplemented with 10 ng/mL of IL-6 was used for LNCaP, a prostate cancer cell line, when treated with a drug. Each type of cells to be used in experiments were sub-cultured in a 96-well plate by counting the exact number of cells using Tali™ Image-based Cytometer (Life Technologies). In a 96-well plate, AGS, HCT116, and DU-145 were employed with 3,000 cells/well; NCI-H23, SW626, Hep3B, ACHN, BT-549, MDA-MB-231, HEL92.1.7, and U266 were employed with 5,000 cells/well; and LNCaP and MDA-MB-468 were employed with 10,000 cells/well. The cells were treated with the compounds listed in Examples which were diluted in various concentrations. Upon completion of the compounds treatment, AGS, HCT116, SW626, DU145, NCI-H23, Hep3B, ACHN, BT-549, LNCaP, HEL92.1.7, and U266 cells were cultured at 37° C. under 5% CO2 for from 72 to 96 hours, and MDA-MB-231 and MDA-MB-468 cells were cultured at 37° C. in air for from 72 to 96 hours. Subsequently, the cells were observed under microscope and drug precipitation and particular findings were investigated and recorded. And then, the 96-well plate was placed at room temperature for 30 minutes, added with 20 μL/well of CellTiter-Glo solution (Cat No. G7573, Promega) and shaken for 10 minutes, followed by being subjected to the measurement using PHERAstar™ microplate reader (BMG LABTECH) according to the supplier's general luminometer protocol. Wells where only culture liquid added without cell plating were used as a negative control, whereas wells where culture liquid containing 0.1% DMSO instead of the compounds listed in Examples were used as a positive control.

The next test has as its target T1, STAT3 (Homo sapiens, UniProt P40763).
T1 construct: plasmid pSTAT3-TA-luc), which contains a stably operating STAT3 promoter; endogenous in cells
As to the kind of experiment: STAT3 reporter gene assay (luciferase), LNCaP stable cell line (pSTAT3-TA-luc), IL-6 stimulation. In a few lines:
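Cytotoxicity was run on a duplicate plate with CellTiter-Glo, while the other plate gave luciferase read-outs from lysed LNCaP pSTAT3-TA-luc reporter cells. Cells were treated with graded compound concentrations plus IL-6 (10 ng/mL final) for 24–48 h in 3% DCC-FBS medium. Unstimulated and stimulated wells served as negative and positive controls.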
On the technique in general: Reporter assays use an easily measured gene product as a stand-in for the process of interest.

T1 sequence (P40763 whole entry): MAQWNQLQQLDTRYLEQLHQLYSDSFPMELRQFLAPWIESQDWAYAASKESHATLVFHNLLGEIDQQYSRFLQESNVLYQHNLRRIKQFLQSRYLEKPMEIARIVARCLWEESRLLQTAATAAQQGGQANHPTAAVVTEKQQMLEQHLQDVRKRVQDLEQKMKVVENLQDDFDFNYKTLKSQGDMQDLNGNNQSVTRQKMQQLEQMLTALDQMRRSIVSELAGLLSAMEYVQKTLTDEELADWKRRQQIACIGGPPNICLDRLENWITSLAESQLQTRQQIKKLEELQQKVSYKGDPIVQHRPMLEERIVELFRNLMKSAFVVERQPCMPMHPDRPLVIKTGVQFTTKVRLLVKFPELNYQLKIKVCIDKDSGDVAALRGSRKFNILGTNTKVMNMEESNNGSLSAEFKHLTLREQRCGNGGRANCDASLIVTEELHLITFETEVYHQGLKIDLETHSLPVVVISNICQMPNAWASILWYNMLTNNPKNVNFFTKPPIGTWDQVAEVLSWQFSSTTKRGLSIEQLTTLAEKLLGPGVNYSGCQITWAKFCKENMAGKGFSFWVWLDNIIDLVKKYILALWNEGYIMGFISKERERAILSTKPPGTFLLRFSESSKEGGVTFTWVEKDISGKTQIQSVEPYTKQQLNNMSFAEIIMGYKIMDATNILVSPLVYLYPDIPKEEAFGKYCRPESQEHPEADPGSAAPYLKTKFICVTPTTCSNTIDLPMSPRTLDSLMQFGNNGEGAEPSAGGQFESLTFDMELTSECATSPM

By IC50 is commonly meant the midpoint of a concentration-inhibition curve. As to `Cn1cc(Cc2cc(OC(F)(F)C(F)F)cc(C(C)(C)c3cc(Cl)cc(NC(=O)c4cc5cc(NS(C)(=O)=O)ccc5s4)c3)c2)cn1` [Example 138, N-(3-chloro-5-(2-(3-((1-methyl-1H-pyrazol-4-yl)methyl)-5-(1,1,2,2-tetrafluoroethoxy)phenyl)propan-2-yl)phenyl)-5-(methylsulfonamido) benzo[b]thiophene-2-carboxamide], the IC50 with DU-145 is 0.018 µM; with LNCaP, 0.054 µM; in the test on HEL92.1.7, 0.26 µM; on STAT3 it was 0.02 µM.
The matching figures for `CN(C)S(=O)(=O)N1CCN(Cc2cc(OC(F)(F)C(F)F)cc(C(C)(C)c3cc(Br)cc(NC(=O)c4cc5cc(NS(C)(=O)=O)ccc5s4)c3)c2)CC1` [Example 139, N-(3-bromo-5-(2-(3-((4-(N,N-dimethylsulfamoyl)piperazin-1-yl)methyl)-5-(1,1,2,2-tetrafluoroethoxy)phenyl)propan-2-yl)phenyl)-5-(methylsulfonamido)benzo[b]thiophene-2-carboxamide]: 0.073 µM, 0.17 µM, 0.69 µM and 0.11 µM.
As for `CC(C)(c1cc(F)cc(NC(=O)c2cc3cc(NS(C)(=O)=O)ccc3s2)c1)c1cc(CN2CCOCC2)cc(OC(F)(F)C(F)F)c1` [Example 140, N-(3-fluoro-5-(2-(3-(morpholinomethyl)-5-(1,1,2,2-tetrafluoroethoxy)phenyl)propan-2-yl)phenyl)-5-(methylsulfonamido)benzo[b]thiophene-2-carboxamide], the IC50 was determined as 0.053 µM in the test on DU-145, 0.13 µM with LNCaP, 0.3 µM in the test with HEL92.1.7 and 0.09 µM at STAT3.
Regarding `CC(C)(c1cc(Br)cc(NC(=O)c2cc3cc(NS(C)(=O)=O)ccc3s2)c1)c1cc(CN2CCN(C3COC3)CC2)cc(OC(F)(F)C(F)F)c1` [Example 141, N-(3-bromo-5-(2-(3-((4-(oxetan-3-yl)piperazin-1-yl)methyl)-5-(1,1,2,2-tetrafluoroethoxy)phenyl)propan-2-yl)phenyl)-5-(methylsulfonamido)benzo[b]thiophene-2-carboxamide], the IC50 with DU-145 was determined as 0.14 µM; in the test with LNCaP it was 0.36 µM; in the test with HEL92.1.7, 1.05 µM; against STAT3, 0.38 µM.
With `CC(C)Oc1cc(-c2ccnn2C)cc(C(C)(C)c2cc(Cl)cc(NC(=O)c3cc4cc(NS(C)(=O)=O)ccc4s3)c2)c1` [Example 142, N-(3-chloro-5-(2-(3-isopropoxy-5-(1-methyl-1H-pyrazol-5-yl)phenyl)propan-2-yl)phenyl)-5-(methylsulfonamido)benzo[b]thiophene-2-carboxamide], the IC50 was determined as 0.09 µM in the test on DU-145, 0.33 µM in the test on LNCaP, 0.33 µM with HEL92.1.7 and 0.13 µM against STAT3.
In the case of `CC(C)Oc1cc(-c2cnn(C)c2)cc(C(C)(C)c2cc(Cl)cc(NC(=O)c3cc4cc(NS(C)(=O)=O)ccc4s3)c2)c1` [Example 143, N-(3-chloro-5-(2-(3-isopropoxy-5-(1-methyl-1H-pyrazol-4-yl)phenyl)propan-2-yl)phenyl)-5-(methylsulfonamido)benzo[b]thiophene-2-carboxamide], the IC50 in the test with DU-145 was 0.18 µM; in the test with LNCaP it was 0.47 µM; with HEL92.1.7, 0.48 µM; at STAT3, 0.29 µM.
The matching figures for `CC(C)Oc1cc(N2CC[N+](C)([O-])CC2)cc(C(C)(C)c2cc(Cl)cc(NC(=O)c3cc4cc(NS(C)(=O)=O)ccc4s3)c2)c1` [Example 144]: 1 µM, 2.6 µM, above 1.1 µM and 5.2 µM.
The matching figures for `CC(C)Oc1cc(N2CCOCC2)cc(C(C)(C)c2cc(Cl)cc(NC(=O)c3cc4cc(NS(C)(=O)=O)ccc4s3)c2)c1` [Example 145, N-(3-chloro-5-(2-(3-isopropoxy-5-morpholinophenyl)propan-2-yl)phenyl)-5-(methylsulfonamido)benzo[b]thiophene-2-carboxamide]: 0.06 µM, 0.04 µM, 0.16 µM and 0.067 µM.
The matching figures for `CC(C)Oc1cc(N2CCCC2)cc(C(C)(C)c2cc(Cl)cc(NC(=O)c3cc4cc(NS(C)(=O)=O)ccc4s3)c2)c1` [Example 146, N-(3-chloro-5-(2-(3-isopropoxy-5-(pyrrolidin-1-yl)phenyl)propan-2-yl)phenyl)-5-(methylsulfonamido)benzo[b]thiophene-2-carboxamide]: 0.019 µM, 0.022 µM, 0.32 µM and 0.073 µM.
Consider `CC(C)Oc1cc(N2CCN(C)CC2)cc(C(C)(C)c2cc(Cl)cc(NC(=O)c3cc4cc(NS(C)(=O)=O)ccc4s3)c2)c1` [Example 147, N-(3-chloro-5-(2-(3-isopropoxy-5-(4-methylpiperazin-1-yl)phenyl)propan-2-yl)phenyl)-5-(methylsulfonamido)benzo[b]thiophene-2-carboxamide], for which the IC50 with DU-145 worked out at 0.47 µM; in the test with LNCaP, 0.8 µM; in the test with HEL92.1.7 it was 1.04 µM; against STAT3, 0.67 µM.
The matching figures for `COc1cc(OC(F)(F)F)cc(C(C)(C)c2cc(Cl)nc(NC(=O)c3cc4cc(NS(C)(=O)=O)ccc4s3)c2)c1` [Example 148, N-(6-chloro-4-(2-(3-methoxy-5-(trifluoromethoxy)phenyl)propan-2-yl)pyridin-2-yl)-5-(methylsulfonamido)benzo[b]thiophene-2-carboxamide]: 0.38 µM, 0.58 µM, 1 µM and above 10 µM.
The matching figures for `COc1cc(OC(F)(F)F)cc(C(C)(C)c2cc(NC(=O)c3cc4cc(NS(C)(=O)=O)ccc4s3)cc(Cl)n2)c1` [Example 149, N-(2-chloro-6-(2-(3-methoxy-5-(trifluoromethoxy)phenyl)propan-2-yl)pyridin-4-yl)-5-(methylsulfonamido)benzo[b]thiophene-2-carboxamide]: 0.03 µM, 0.05 µM, 0.14 µM and 0.07 µM.
The matching figures for `COc1cc(OC(F)(F)F)cc(C(C)(C)c2cc(Cl)cc(NC(=O)c3cc4cc(NS(C)(=O)=O)ccc4s3)n2)c1` [Example 150, N-(4-chloro-6-(2-(3-methoxy-5-(trifluoromethoxy)phenyl)propan-2-yl)pyridin-2-yl)-5-(methylsulfonamido)benzo[b]thiophene-2-carboxamide]: 0.008 µM, 0.016 µM, 0.031 µM and 0.014 µM.
As for `CC(C)Oc1cc(OC(F)(F)F)cc(C(C)(C)c2cc(Cl)cc(NC(=O)c3cc4nc(NS(C)(=O)=O)cnc4s3)c2)c1` [Example 151, N-(3-chloro-5-(2-(3-isopropoxy-5-(trifluoromethoxy)phenyl)propan-2-yl)phenyl)-2-(methylsulfonamido)thieno[2,3-b]pyrazine-6-carboxamide], the IC50 was above 1.1 µM in the test on DU-145, 0.36 µM with LNCaP, 4.7 µM in the test with HEL92.1.7 and 2.2 µM against STAT3.
Turning to `CC(C)(c1ccc(Br)cc1)c1cc(Cl)cc(NC(=O)c2cc3cc(NS(C)(=O)=O)ccc3s2)c1` [Example 152, N-(3-(2-(4-bromophenyl)propan-2-yl)-5-chlorophenyl)-5-(methylsulfonamido)benzo[b]thiophene-2-carboxamide], the IC50 with DU-145 turned out to be 0.047 µM; in the test on LNCaP, 0.059 µM; in the test with HEL92.1.7, 0.21 µM; at STAT3 it was 0.12 µM.
The matching figures for `COc1ccc(C(C)(C)c2cc(Cl)cc(NC(=O)c3cc4cc(NS(C)(=O)=O)ccc4s3)c2)cc1OC` [Example 153, N-(3-chloro-5-(2-(3,4-dimethoxyphenyl)propan-2-yl)phenyl)-5-(methylsulfonamido)benzo[b]thiophene-2-carboxamide]: 0.15 µM, 0.1 µM, 0.39 µM and 0.15 µM.
